Measurements: paper PMC3272328 (2011)
Substitutions are numbered along the chain they refer to.

Columns and labels:
Type in all cases: biochemical
[1] = target: T1, soluble guanylyl cyclase (Homo sapiens, UniProt Q02108+Q02153); experiment: cGMP ELISA enzyme assay
T1 sequence (Q02153 1-619): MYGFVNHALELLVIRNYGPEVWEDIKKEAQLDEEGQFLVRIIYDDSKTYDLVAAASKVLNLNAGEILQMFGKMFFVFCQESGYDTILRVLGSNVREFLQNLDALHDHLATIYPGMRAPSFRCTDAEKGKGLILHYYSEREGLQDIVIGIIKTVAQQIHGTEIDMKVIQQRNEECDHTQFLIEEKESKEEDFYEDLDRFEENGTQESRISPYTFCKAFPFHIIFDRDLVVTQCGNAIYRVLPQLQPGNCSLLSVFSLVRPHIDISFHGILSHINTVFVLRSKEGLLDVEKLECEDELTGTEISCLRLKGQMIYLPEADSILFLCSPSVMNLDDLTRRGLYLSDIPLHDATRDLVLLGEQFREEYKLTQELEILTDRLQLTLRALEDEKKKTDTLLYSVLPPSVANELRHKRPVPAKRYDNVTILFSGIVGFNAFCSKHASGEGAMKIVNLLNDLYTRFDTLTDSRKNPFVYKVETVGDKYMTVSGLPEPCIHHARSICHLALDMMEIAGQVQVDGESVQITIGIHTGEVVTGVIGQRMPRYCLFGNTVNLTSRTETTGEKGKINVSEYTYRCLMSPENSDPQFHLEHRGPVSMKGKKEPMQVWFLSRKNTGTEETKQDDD
T1 sequence (Q02108 1-690): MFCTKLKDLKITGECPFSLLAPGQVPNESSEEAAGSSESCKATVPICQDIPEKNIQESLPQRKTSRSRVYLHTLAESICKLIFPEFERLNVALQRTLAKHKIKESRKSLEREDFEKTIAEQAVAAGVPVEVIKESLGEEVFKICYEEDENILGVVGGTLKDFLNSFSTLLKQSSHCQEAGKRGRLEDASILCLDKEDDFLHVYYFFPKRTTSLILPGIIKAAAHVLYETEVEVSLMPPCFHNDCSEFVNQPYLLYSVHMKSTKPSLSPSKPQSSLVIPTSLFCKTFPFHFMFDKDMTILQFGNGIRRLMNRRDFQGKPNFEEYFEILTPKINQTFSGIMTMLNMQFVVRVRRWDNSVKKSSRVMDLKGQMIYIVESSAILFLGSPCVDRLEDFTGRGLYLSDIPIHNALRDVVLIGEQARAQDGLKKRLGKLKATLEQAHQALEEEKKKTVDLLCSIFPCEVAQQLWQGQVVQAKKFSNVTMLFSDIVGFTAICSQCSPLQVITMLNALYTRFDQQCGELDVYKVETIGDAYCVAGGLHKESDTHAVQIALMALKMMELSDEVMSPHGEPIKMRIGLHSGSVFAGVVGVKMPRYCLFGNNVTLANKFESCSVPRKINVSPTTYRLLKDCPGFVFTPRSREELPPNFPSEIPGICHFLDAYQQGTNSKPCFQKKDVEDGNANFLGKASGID

[2] = target: T2, soluble guanylyl cyclase (Bos taurus, UniProt P16068+P19687); experiment: cGMP ELISA enzyme assay
T2 sequence (P16068 1-619): T1 sequence (Q02153 1-619) with E126D, L290S, S574T, K615E, D618E, D619N
T2 sequence (P19687 1-691): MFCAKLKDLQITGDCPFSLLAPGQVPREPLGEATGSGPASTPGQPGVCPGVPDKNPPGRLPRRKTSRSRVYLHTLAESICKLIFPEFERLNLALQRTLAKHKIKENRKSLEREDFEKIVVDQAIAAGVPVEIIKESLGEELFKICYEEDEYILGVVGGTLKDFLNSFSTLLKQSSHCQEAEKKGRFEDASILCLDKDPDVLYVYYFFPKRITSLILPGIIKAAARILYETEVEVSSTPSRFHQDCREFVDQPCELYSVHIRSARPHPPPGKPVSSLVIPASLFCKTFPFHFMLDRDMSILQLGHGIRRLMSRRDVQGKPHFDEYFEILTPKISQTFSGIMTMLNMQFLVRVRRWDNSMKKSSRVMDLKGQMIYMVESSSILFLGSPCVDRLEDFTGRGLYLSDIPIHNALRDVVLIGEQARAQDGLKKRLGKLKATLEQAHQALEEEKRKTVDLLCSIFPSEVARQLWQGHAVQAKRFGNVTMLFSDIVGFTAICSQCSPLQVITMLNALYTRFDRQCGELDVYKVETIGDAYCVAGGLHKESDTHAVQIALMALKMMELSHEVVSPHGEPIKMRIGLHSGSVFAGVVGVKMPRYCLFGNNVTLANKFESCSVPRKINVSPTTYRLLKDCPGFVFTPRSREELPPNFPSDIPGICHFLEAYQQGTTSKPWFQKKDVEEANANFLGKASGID

[3] = target: T2, soluble guanylyl cyclase; experiment: cGMP production by ELISA at varied GTP

SMILES	cGMP ELISA enzyme assay [1]	Ki [2] [µM]	cGMP production by ELISA at varied GTP; Lineweaver-Burk plot [3]
Nc1nc(=O)c2ncn([C@H]3C=C[C@@H](COP(=O)(O)OP(=O)(O)OP(=O)(O)O)C3)c2[nH]1 [carbovir triphosphate]	able to inhibit the activity of purified soluble guanylyl cyclase (both purified native bovine enzyme and recombinant human enzyme)	55	–
Nc1nc2c(ncn2[C@@H]2O[C@H](COP(=O)(O)OP(=O)(O)OP(=O)(O)O)[C@@H](O)[C@H]2O)c(=O)[nH]1 [guanosine triphosphate]	–	–	we measured the amount of inhibition while varying the concentrations of GTP and carbovir triphosphate
